{"source": "patent US20260152724A1", "about": "“SMALL INTESTINE EPITHELIUM-LIKE CELLS AND PRODUCTION METHOD THEREOF” (OSAKA UNIVERSITY, priority 2022, published 2026)", "key": {"[1]": {"system": "definitive endoderm cells", "experiment": "Induction of differentiation from definitive endoderm cells into intestinal progenitor cells, marker gene expression by qRT-PCR (Example 1)", "type": "cell-based, human", "conditions": "4 days", "description": "This Example examined a differentiation-inducing action in a culture system containing each concentration of retinoic acid or a GSK3β inhibitor, which was known to be important in differentiation from definitive endoderm. To induce differentiation from definitive endoderm cells into intestinal progenitor cells, the medium B shown in Reference Example 2 was used as a basal medium.\nThen, RNAs were recovered and analyzed for gene expression levels of an intestinal progenitor cell marker CDX2, a hepatic progenitor cell marker AFP, and a pancreatic progenitor cell marker PDX1 by quantitative RT-PCR (qRT-PCR). The quantitative RT-PCR was performed according to a common method. Total RNAS were recovered and CDNAS were synthesized. Complementary DNAs (cDNAs) were subjected to qRT-PCR with Fast SYBR Green Master Mix (Applied Biosystems) and quantification with StepOnePlus Real time PCR system (Applied Biosystems). A glyceraldehyde 3-phosphate dehydrogenase (GAPDH) gene was used as an internal standard gene. In addition, each gene expression level of DMSO-treated groups, which were controls, was set to 1.0. Data was shown with n=3, mean±standard deviation, but n=2 for each LY (10 nM and 30 nM). A detection limit was represented by N.D."}, "[2]": {"system": "intestinal progenitor cells", "experiment": "MEK inhibitor in differentiation from intestinal progenitor cells into ELCs, gene expression by qRT-PCR (Example 3)", "type": "cell-based, human", "conditions": "PD 3 μM in medium C for 10 days, PD(+) versus PD(−); Conditions 2 and 3", "method": "This Example investigated the action of a MEK inhibitor in a stage of inducing differentiation from intestinal progenitor cells into enterocyte-like cells (ELCs). PD0325901 (MedChemExpress LLC) was used as the MEK inhibitor. PD0325901 is sometimes abbreviated as PD in this Example and Examples described below. In a step from definitive endoderm cells to intestinal progenitor cells, culture e was performed under Conditions 2 and 3 shown in Table 3 in Example 2 according to the protocol illustrated in FIG. 3(1). […] Thus, the cells were induced to differentiate into enterocyte-like cells (ELCs). Subsequently, RNAs were recovered by the same procedure as in Example 1, and analyzed for each gene expression level of VIL1, CYP3A4, and MDR1 by qRT-PCR by the same method as in Example 2. Each gene expression level in an adult small intestine was set to 1.0. Data was shown with n=3, mean±standard deviation."}, "CYP3A4 [3]": {"system": "CYP3A4", "experiment": "CYP3A4 activity of ELCs, P450-Glo CYP3A4 assay (Example 3)", "type": "cell-based, human", "conditions": "PD 3 μM in medium C for 10 days, PD(+) versus PD(−); Luciferin-IPA substrate, corrected by protein per well", "method": "(§1) Further, CYP3A4 activity was checked. The CYP3A4 activity was measured with P450-Glo™ CYP3A4 Assay Kits (Promega Corporation). […] The CYP3A4 activity was corrected by the amount of a protein per well measured with BCA Protein Assay Kit (Thermo Fisher Scientific Inc.)."}, "CYP3A4 [4]": {"system": "CYP3A4", "experiment": "Elimination of a humoral factor from medium K in ELC monolayer culture, CYP3A4 activity (Example 9)", "method": "as §1\nThis Example investigated an influence of a humoral factor in ELC monolayer culture. […] In this Example, culture was performed with addition of the medium to only an upper stage A in a cell culture insert (Corning Incorporated) used in monolayer culture (FIG. 9(1))."}, "P-gp": {"system": "P-gp", "experiment": "Elimination of a humoral factor from medium K in ELC monolayer culture, P-gp activity (Example 9)", "type": "cell-based, human", "conditions": "ELC monolayer (day 27 2D K), 6 days in medium K without the factor; digoxin substrate", "method": "P-gp is an efflux transporter, and its activity was measured by allowing 1 μM digoxin to act through use of digoxin, [^3H (G)]-(PerkinElmer) and digoxin (Asahi Kasei Corporation) as substrate compounds, and allowing 100 μM verapamil to act as an inhibitor."}, "[5]": {"conditions": "RA at each concentration (3, 10, 20, 30 μM) in medium B, DMSO-treated group = 1.0"}}, "note": "Read-outs that look alike come from different tables or passages of the source.", "data": [{"molecule": "Cc1c[nH]c(-c2cnc(NCCNc3ccc(C#N)cn3)nc2-c2ccc(Cl)cc2Cl)n1", "note": "[CHIR, CHIR99021]", "values": [{"measurement": "expression of CDX2", "setting": "[1]; CHIR at 10 μM (of 3, 10, 20 μM) in medium B", "value": "highest expression"}, {"measurement": "expression of AFP", "setting": "[1]; CHIR at 10 μM in medium B", "value": "low expressions"}, {"measurement": "expression of PDX1", "setting": "[1]; CHIR at 10 μM in medium B", "value": "low expressions"}]}, {"molecule": "O=C1NC(=O)C(c2cnc3ccccn23)=C1c1cn2c3c(cc(F)cc13)CN(C(=O)N1CCCCC1)CC2", "note": "[LY, LY2090314]", "values": [{"measurement": "expression of CDX2", "setting": "[1]; LY at 20 nM (of 3, 10, 20, 30 nM) in medium B", "value": "highest expression"}, {"measurement": "expression of AFP (hepatic progenitor cell marker)", "setting": "[1]; LY at 20 nM in medium B", "value": "low expressions"}, {"measurement": "expression of PDX1", "setting": "[1]; LY at 20 nM in medium B", "value": "low expressions"}]}, {"molecule": "O=C(NOC[C@H](O)CO)c1ccc(F)c(F)c1Nc1ccc(I)cc1F", "note": "[PD, PD0325901]", "values": [{"measurement": "gene expression level of CYP3A4", "setting": "[2]", "value": "clearly higher values"}, {"measurement": "gene expression level of MDR1", "setting": "[2]", "value": "clearly higher values"}, {"measurement": "CYP3A4 activity", "setting": "CYP3A4 [3]", "value": "clearly higher value"}, {"measurement": "CYP3A4 activity on elimination of the factor from medium K", "setting": "CYP3A4 [4]", "value": "greatly decreased"}]}, {"molecule": "CC1=C(/C=C/C(C)=C/C=C/C(C)=C/C(=O)O)C(C)(C)CCC1", "note": "[RA, all-trans-Retinoic Acid]", "values": [{"measurement": "expression level of CDX2 (intestinal progenitor cell marker)", "setting": "[1]; [5]", "value": "high expression levels"}, {"measurement": "expression level of PDX1 (pancreatic progenitor cell marker)", "setting": "[1]; [5]", "value": "high expression levels"}]}, {"molecule": "NC(=O)c1ccc(-c2nc(-c3ccc4c(c3)OCO4)c(-c3ccccn3)[nH]2)cc1", "note": "[SB431542]", "values": [{"measurement": "CYP3A4 activity on elimination of the factor from medium K", "setting": "CYP3A4 [4]", "value": "significantly increased"}]}, {"molecule": "C=C1/C(=C\\C=C2/CCC[C@]3(C)[C@@H]([C@H](C)CCCC(C)(C)O)CC[C@@H]23)C[C@@H](O)C[C@@H]1O", "note": "[Vitamin D3, 1α,25-Dihydroxyvitamin D3]", "values": [{"measurement": "CYP3A4 activity on elimination of the factor from medium K", "setting": "CYP3A4 [4]; ELC monolayer (day 27 2D K), 6 days in medium K without the factor", "value": "greatly decreased"}]}, {"molecule": "EGF: Epidermal growth factor, component of medium K", "values": [{"measurement": "CYP3A4 activity on elimination of the factor from medium K", "setting": "CYP3A4 [4]", "value": "significantly increased"}, {"measurement": "P-gp activity on elimination of the factor from medium K", "setting": "P-gp", "value": "no influence"}]}]}
